From article PMC9267128, “New 2-[(4-Amino-6-N-substituted-1,3,5-triazin-2-yl)methylthio]-N-(imidazolidin-2-ylidene)-4-chloro-5-methylbenzenesulfonamide Derivatives, Design, Synthesis and Anticancer Evaluation” (International Journal of Molecular Sciences, 2022)

Columns and labels:
HCT-116 (colon cancer) = assay: MTT cell viability assay, HCT-116; assay type: cell-based, human; settings: for IC50: MTT assay, 72 h of incubation; for Selectivity Index (SI) HCT-116: IC50 value toward HaCaT cells/IC50 value toward HCT-116
In short: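 HCT-116 and HeLa cells in DMEM/10% FBS exposed 72 h to compounds over 1–100 µM. Viability by MTT (0.5 mg/mL, 2 h, 37 °C), formazan dissolved in DMSO and read at 550 nm; mean ± SD of at least three independent experiments.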

[1] = test system: A2780 (ovarian carcinoma cell line); assay: MTT assay, wild-type p53 ovarian cancer cells A2780; assay type: cell-based; settings: Homo sapiens, A2780, 72 h of incubation
Procedure: Thus, the ability of the selected compounds to exert cytotoxic activity toward cell lines harboring mutant p53 was examined. Compounds displaying a high selectivity index (Table 6) were selected for the analysis of their activity toward ovarian and breast cancer cells with wild-type p53 (A2780, MCF-7) and mutant p53 (SKOV-3, T47D).
Cell viability was examined using the MTT [3-(4,5-dimethylthiazol-2-yl)-2,5-diphenyltetrazolium bromide] assay. Cells were seeded in 96-well plates at a density of 3 × 10^3 cells/well and treated for 72 h with the tested compounds in the concentration range of 1–100 µM. Then, MTT (0.5 mg/mL) was added to the medium and cells were further incubated for 2 h at 37 °C. In the next stage, cells were lysed with DMSO and the absorbance of the formazan solution was measured at 550 nm with a plate reader (1420 multilabel counter, Victor, Jügesheim, Germany). The experiment was performed in triplicate. Values are expressed as the mean ± SD of at least three independent experiments. Cisplatin was used as a positive control.
Compounds 48, 62, 134, 138 and 140 were further examined toward MCF7 (breast cancer cell line, ATCC, HTB-22), T47D (breast cancer cell line, DSMZ ACC 739), A2780 (ovarian carcinoma cell line, ECACC, 93112519), and SKOV3 (ovarian carcinoma cell line, ATCC, HTB-77) cells. Cells were grown in Dulbecco’s Modified Eagle Medium (DMEM) supplemented with 10% fetal bovine serum (Thermo Fisher Scientific).

MCF-7 cells = assay: Apoptosis analysis (Annexin V-PE/7-AAD flow cytometry) in MCF-7 cells; assay type: cell-based, human; settings: MCF-7, 5, 10 and 25 µM, 72 h
Procedure: To confirm this, MCF-7 cells were treated with a concentration range of compounds 140 and 48 for 72 h. Flow cytometric analysis was performed with Annexin V-PE staining. […] The increase in apoptotic cells was mainly evident in the late apoptotic stage (upper right quadrant) (Figure 9).
(§1) Levels of apoptosis were measured by flow cytometry using the Annexin V-PE Apoptosis Detection Kit I (BD Biosciences, Belgium) according to the manufacturer’s instructions. Apoptosis was assessed after a 72 h treatment of MCF7 and T47D cells with compounds 48 and 140 in the concentrations of 5, 10 and 25 µM. Proceeding cell treatment, cells were collected, washed with PBS and stained with Annexin V-phycoerythrin (PE) and 7-amino-actinomycin (7-AAD) in Annexin V binding buffer for 15 min at RT in the dark. After staining, cells were diluted in Annexin V binding buffer and analyzed on a BD FACSCalibur flow cytometer (BD Biosciences). At total of 10^4 cells were analyzed from each sample and data were analyzed with Flowing software (version 2.5).

T47D cells = assay: Apoptosis analysis (Annexin V-PE/7-AAD flow cytometry) in T47D cells; assay type: cell-based; settings: T47D (mutant p53), 5, 10 and 25 µM, 72 h
Procedure: Since the examined compounds exerted cytotoxic activity toward cell lines harboring mutant p53, the ability of compounds 140 and 48 to induce apoptosis in T47D cells with mutant p53 was examined. […] Cell death was induced to a similar extent in cells harboring wild-type and mutant p53 (Figure 10).
as §1

| Structure (SMILES) | IC50 (HCT-116 (colon cancer); Homo sapiens, HCT-116, 72 h) [µM] | Selectivity Index (SI) HCT-116 (HCT-116 (colon cancer)) | IC50 [1] [µM] | apoptotic population of cells (Annexin V-PE) (MCF-7 cells) | apoptotic cells (Annexin V-PE) (T47D cells) | IC50 (HCT-116 (colon cancer)) [µM] |
| --- | --- | --- | --- | --- | --- | --- |
| Cc1cc(S(=O)(=O)N=C2NCCN2Cc2ccccc2)c(SCc2nc(N)nc(N3CCc4ccccc43)n2)cc1Cl [Compound 48] | 6 ± 0.1 | 5.5 | 4 ± 0.1 | concentration-dependent increase | concentration-dependent increase |  |
| Cc1cc(S(=O)(=O)N=C2NCCN2Cc2ccc(C(F)(F)F)cc2)c(SCc2nc(N)nc(N3CCN(Cc4ccccc4)CC3)n2)cc1Cl [Compound 140] | < 6 | 4.4 | 4.5 ± 0.1 | concentration-dependent increase | concentration-dependent increase | 5 ± 0.2 |
